Legend:
Format in all cases: functional
SW837 [1] = experiment: Synergistic antitumor activity against human SW837 cells assessed as inhibition of cell growth at 1000 nM incubated for 72 hrs in presence of sotorasib by Celltiter Glo assay relative to control
NCI-H358 [2] = experiment: Synergistic antitumor activity against human NCI-H358 cells assessed as inhibition of cell growth at 300 nM incubated for 72 hrs in presence of sotorasib by Celltiter Glo assay relative to control
SW837 [3] = experiment: Antitumor activity against human SW837 cells assessed as inhibition of cell growth at 1000 nM incubated for 72 hrs by Celltiter Glo assay relative to control
SW837 [4] = experiment: Synergistic antitumor activity against human SW837 cells assessed as tumor regression at 60 mg/kg, po once daily for 18 days co-administered with sotorasib relative to control; conditions: time 18 day
NCI-H23 [5] = experiment: Antitumor activity against human NCI-H23 cells assessed as inhibition of cell growth at 120 nM incubated for 72 hrs by Celltiter Glo assay relative to control
MIA PaCa-2 [6] = experiment: Antitumor activity against human MIA PaCa-2 cells assessed as inhibition of cell growth at 1000 nM incubated for 72 hrs by Celltiter Glo assay
MIA PaCa-2 [7] = experiment: Synergistic antitumor activity against human MIA PaCa-2 cells assessed as inhibition of cell growth at 1000 nM incubated for 72 hrs in the presence of sotorasib by Celltiter Glo assay
SW837 [8] = experiment: Synergistic antitumor activity against human SW837 cells assessed as tumor growth inhibition at 60 mg/kg, po once daily for 18 days co-administered with sotorasib relative to control; conditions: SW837, 432 h, time 18 day, read-out: TGI
NCI-H23 [9] = experiment: Synergistic antitumor activity against human NCI-H23 cells assessed as inhibition of cell growth at 120 nM incubated for 72 hrs in presence of sotorasib by Celltiter Glo assay relative to control
NCI-H358 [10] = experiment: Antitumor activity against human NCI-H358 cells assessed as inhibition of cell growth at 300 nM incubated for 72 hrs by Celltiter Glo assay relative to control
SW837 [11] = experiment: Antitumor activity against human SW837 cells xenografted in mouse assessed as tumor growth inhibition at 60 mg/kg, po administered once daily for 18 days relative to control; conditions: SW837, 432 h, time 18 day, read-out: TGI
NCI-H23 [12] = experiment: Antitumor activity against human NCI-H23 cells assessed as inhibition of cell growth at 40 nM incubated for 72 hrs by Celltiter Glo assay relative to control
NCI-H358 [13] = experiment: Antitumor activity against human NCI-H358 cells assessed as inhibition of cell growth at 10 nM incubated for 72 hrs by Celltiter Glo assay relative to control
SW837 [14] = experiment: Antitumor activity against human SW837 cells assessed as inhibition of cell growth at 12 nM incubated for 72 hrs by Celltiter Glo assay relative to control
SW837 [15] = experiment: Antitumor activity against human SW837 cells xenografted in mouse assessed as tumor growth inhibition at 30 mg/kg, po administered once daily for 18 days relative to control; conditions: SW837, 432 h, time 18 day, read-out: TGI
MIA PaCa-2 [16] = experiment: Antitumor activity against human MIA PaCa-2 cells assessed as inhibition of cell growth at 350 nM incubated for 72 hrs by Celltiter Glo assay

Row | Compound | inhibition at 1 µM (SW837 [1]) | inhibition at 0.3 µM (NCI-H358 [2]) | inhibition at 1 µM (SW837 [3]) | Activity (SW837 [4]) | inhibition at 0.12 µM (NCI-H23 [5]) | inhibition at 1 µM (MIA PaCa-2 [6]) | inhibition at 1 µM (MIA PaCa-2 [7]) | inhibition in vivo at 60 mg/kg (SW837 [8]) | inhibition at 0.12 µM (NCI-H23 [9]) | inhibition at 0.3 µM (NCI-H358 [10]) | inhibition in vivo at 60 mg/kg (SW837 [11]) | inhibition at 0.04 µM (NCI-H23 [12]) | inhibition at 0.01 µM (NCI-H358 [13]) | inhibition at 0.012 µM (SW837 [14]) | inhibition in vivo at 30 mg/kg (SW837 [15]) | inhibition at 0.35 µM (MIA PaCa-2 [16])
1 | C=CCn1c(=O)c2cnc(Nc3ccc(N4CCN(C)CC4)cc3)nc2n1-c1ccc2c(n1)[C@@](O)(CC)CC2 [AZENOSERTIB] | 45.4% | 55.6% | 28.8% | 23% | 16.5% | 47% | 76% | 109% | 53% | 31.5% | 72% |  |  |  |  | 
2 | C=CC(=O)N1CCN(c2nc(=O)n(-c3c(C)ccnc3C(C)C)c3nc(-c4c(O)cccc4F)c(F)cc23)[C@@H](C)C1 [SOTORASIB] |  |  |  |  |  |  |  |  |  |  |  | 27.8% | 24% | 20.7% | 80% | 39%

From ChEMBL document CHEMBL5357019, “Targeted Combination Therapies: A New Frontier in the Treatment of TP53 and KRAS Mutation-Associated Cancers” (2024)
